The target in assay [1] is T1, recombinant human sialidase NEU3 (Homo sapiens, UniProt Q9UQ49).
T1 construct: purchased Origene TP316537
T1 sequence (Q9UQ49 1-428): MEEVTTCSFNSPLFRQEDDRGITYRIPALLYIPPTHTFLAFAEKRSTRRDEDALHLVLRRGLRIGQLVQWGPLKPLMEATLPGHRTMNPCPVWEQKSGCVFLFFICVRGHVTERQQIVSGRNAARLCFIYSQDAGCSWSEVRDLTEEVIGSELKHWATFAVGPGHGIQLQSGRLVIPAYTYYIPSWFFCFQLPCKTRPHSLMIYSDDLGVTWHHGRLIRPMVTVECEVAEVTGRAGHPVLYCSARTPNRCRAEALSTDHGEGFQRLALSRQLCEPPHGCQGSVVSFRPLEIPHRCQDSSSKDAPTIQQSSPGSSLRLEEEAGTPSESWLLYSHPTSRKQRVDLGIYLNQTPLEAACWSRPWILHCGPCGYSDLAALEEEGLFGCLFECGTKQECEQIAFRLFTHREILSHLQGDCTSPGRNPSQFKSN
Put plainly: NEU3-catalyzed L-TGF-β1 activation (TGF-β1 release/concentration assay, active TGF-β1 ELISA). The format is biochemical. Particulars: recombinant human NEU3, L-TGF-β1, PBS pH 6.9, 2 hours 37° C.; read-out: IC50, inhibits human NEU3 in the TGF-β1 concentration assay. Here is the method: To determine if NEU3 can cause latent transforming growth factor-β1 (L-TGF-β1) to release active TGF-β1, 200 ng/ml recombinant human L-TGF-β1 (299-LT/CF, R&D Systems) was incubated with varying concentrations of recombinant human NEU3 (TP316537, Origene) in a total volume of 100 μl of PBS pH 6.9 in a 96-well microplate (651261, Greiner Bio-one, Monroe, NC). The microplates were covered with aluminum foil and incubated at 37° C. for 2 hours. Following incubation, the reaction mixtures were assayed using a TGF-β1 ELISA kit (DY240, R&D Systems) following the manufacturer's protocol with the exception that the reaction mixtures were not processed for acid treatment, so as to measure only active TGF-β1 and not total TGF-β1. The absorbance was read with a SynergyMX plate reader (BioTek, Winooski, VT).
To determine the ability of compounds 1-31 to inhibit human recombinant NEU3 in-vitro, compounds were dissolved in 5 ml water to 20 mM in 15 ml tubes (89039-664, VWR, Radnor, PA), with the exception that 4-hydroxypyridine-2-carboxylic acid, nicotinic acid, and 4-aminopicolinic acid were dissolved in 50 μl DMSO to 2 M, and this was then added to 4.95 ml of water to make a 20 mM stock, and O-(tetrahydro-2H-pyran-2yl) hydroxylamine and salicylic acid were dissolved in 50 μl methanol to 2 M, and this was then added to 4.95 ml of water to make a 20 mM stock. All stocks were stored at 4° C. and used within 2 weeks of preparation. A 10-fold dilution series of the compounds starting at 2 mM were made in PBS pH 6.9 in 1.7 ml clear microtubes (22-281, Genesee Scientific). 100 μl of diluted compound was added to the well of a 96 well plate and then 50 μl of 400 ng/ml recombinant human sialidase NEU3 (TP316537, Origene) in PBS pH 6.9 was added to each well (50 μl PBS pH 6.9 for the control), and the plate was incubated for 30 minutes at 37° C. 50 μl of 800 ng/ml L-TGF-β1 (299-LT/CF, R&D Systems) in PBS pH 6.9 was then added to the well. The plate was covered with aluminum foil and incubated for 2 hours at 37° C., and released active TGF-β1 was assayed as described above.
A general note: In an ELISA, binding on a coated surface is turned into a signal by an enzyme label.

Assay [2] relates to NEU3-induced IL-6 production by human PBMC. The assay is described as follows: NEU3-induced extracellular IL-6 accumulation by human PBMC (IL-6 concentration assay). Particulars: NEU3, serum-free medium, 48 hours. Type of assay: cell-based. The method, then: Human peripheral blood was collected from healthy volunteers who gave written consent and with specific approval from the Texas A&M University human subjects review board. Peripheral blood mononuclear cells (PBMC) were isolated from the blood using Ficoll-Paque density gradient centrifugation (95021-205, GE Healthcare, Cincinnati, OH) following the manufacture's protocol. PBMC were cultured at […] in 96-well flat bottom tissue culture plates (type 62406-081; […] Louis, MO)) in a final volume of 200 μl per well. […] The sialidases were diluted in 100 μl of the same medium the cells were in, and added to 100 μl of cells at 1×10^5 cells/ml to make the total volume in a well 200 μl with 1×10^4 cells/well. The cells were then incubated at 37° C. in a humidified incubator with 5% CO2. The culture supernatants were collected after two or five days and assayed using an IL-6 ELISA kit (430501, Biolegend, San Diego, CA) following the manufacturer's protocol, reading absorbance with a SynergyMX plate reader (BioTek, Winooski, VT). Statistics were analyzed using Prism software (Graphpad, La Jolla, CA). At least three different donors were used for each assay. […] IL-6 in the culture supernatant was then assayed as described above. At least three different donors were used for each assay.

Take `CC(=O)c1ccccn1` [Compound 5, 2-acetylpyridine]: the IC50 in assay [1] stood at 42 nM; in assay [2], 32000 nM.

In the case of `COC(=O)c1ccccn1` [Compound 6, methyl picolinate], the IC50 in assay [1] is 0.014 nM; in assay [2], over 100000 nM.

In the case of `CN1CCC(N)CC1C(=O)O` (stereo not drawn) [Compound 26, 2-piperidinecarboxylic acid, 4-amino-1-methyl], the IC50 in assay [1] is under 0.01 nM; in assay [2], 0.01 nM.

The record behind these values is patent US12616674B2, “Anti-fibrotic NEU3 inhibitor compounds and methods of use” (The Texas A&M University System, priority 2019, dated 2026).
